Our source for the IC50 values is patent US20230048132A1, “CYCLIN-DEPENDENT KINASE INHIBITORS” (SPV THERAPEUTICS INC., priority 2018, published 2023).

The structures appear in SMILES notation. Several values for one entry are separate records, joined by “and”; a condition that tells them apart may be missing. Equal entries are not always repeated. Where two headings read alike, the source gives them in different places. Bounds are passed on as bounds.

What all share (experiment): CDK inhibition assay (microfluidic LabChip, IC50 format)
One experiment concerns the target CDK1/B (Homo sapiens, UniProt P06493). In kind it is biochemical.
The next experiment deals with T1, CDK2-CYCLINA (Homo sapiens, UniProt P24941).
T1 construct: purchased Millipore
In kind it is biochemical. As to conditions: read-out: CDK2 CyclinA IC50.

The target in the next experiment is CDK7 CyclinH (Homo sapiens, UniProt P50613). The format is biochemical.
Sequence of CDK7 CyclinH (P50613 whole entry): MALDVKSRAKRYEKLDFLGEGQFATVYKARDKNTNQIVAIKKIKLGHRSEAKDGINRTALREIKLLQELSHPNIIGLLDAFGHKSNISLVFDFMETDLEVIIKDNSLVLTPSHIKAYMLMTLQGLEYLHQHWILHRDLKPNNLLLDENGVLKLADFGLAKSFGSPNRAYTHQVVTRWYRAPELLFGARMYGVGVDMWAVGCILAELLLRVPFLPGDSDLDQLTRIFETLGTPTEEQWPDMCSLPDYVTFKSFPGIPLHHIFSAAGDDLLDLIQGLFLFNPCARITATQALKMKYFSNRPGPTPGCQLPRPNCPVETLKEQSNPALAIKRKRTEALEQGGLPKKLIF
Sequence of CDK7 CyclinH (P51946 whole entry partner): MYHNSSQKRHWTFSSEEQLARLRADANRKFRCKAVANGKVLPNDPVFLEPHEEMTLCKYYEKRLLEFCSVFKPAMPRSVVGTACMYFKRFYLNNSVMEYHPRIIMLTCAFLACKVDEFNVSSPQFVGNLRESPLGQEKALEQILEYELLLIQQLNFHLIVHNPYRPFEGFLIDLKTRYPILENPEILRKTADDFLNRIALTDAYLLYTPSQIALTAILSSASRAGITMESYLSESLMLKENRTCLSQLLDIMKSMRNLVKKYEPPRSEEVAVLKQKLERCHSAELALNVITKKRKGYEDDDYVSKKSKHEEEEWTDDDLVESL
Sequence of CDK7 CyclinH (P51948 whole entry partner): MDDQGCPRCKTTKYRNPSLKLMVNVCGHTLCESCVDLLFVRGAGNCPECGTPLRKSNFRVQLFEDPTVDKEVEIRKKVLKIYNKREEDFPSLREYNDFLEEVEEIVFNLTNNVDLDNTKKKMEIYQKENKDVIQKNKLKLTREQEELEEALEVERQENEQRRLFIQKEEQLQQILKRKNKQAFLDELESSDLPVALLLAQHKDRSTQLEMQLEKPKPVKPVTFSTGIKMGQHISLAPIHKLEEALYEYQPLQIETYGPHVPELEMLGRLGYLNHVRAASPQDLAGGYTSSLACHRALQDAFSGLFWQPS
The target in the next experiment is T2, CDK9-CYCLINT1 (Homo sapiens, UniProt P50750).
T2 construct: purchased Carna
T2 sequence (P50750 whole entry): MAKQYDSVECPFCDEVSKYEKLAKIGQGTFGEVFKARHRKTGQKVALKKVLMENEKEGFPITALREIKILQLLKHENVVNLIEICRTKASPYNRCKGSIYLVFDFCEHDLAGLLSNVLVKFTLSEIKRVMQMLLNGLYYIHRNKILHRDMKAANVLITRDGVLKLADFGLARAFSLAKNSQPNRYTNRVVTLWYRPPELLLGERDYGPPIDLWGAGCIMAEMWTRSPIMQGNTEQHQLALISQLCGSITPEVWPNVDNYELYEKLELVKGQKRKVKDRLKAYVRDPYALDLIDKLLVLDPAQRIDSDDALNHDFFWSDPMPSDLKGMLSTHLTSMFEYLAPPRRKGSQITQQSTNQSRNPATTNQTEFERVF
T2 sequence (O60563 whole entry partner): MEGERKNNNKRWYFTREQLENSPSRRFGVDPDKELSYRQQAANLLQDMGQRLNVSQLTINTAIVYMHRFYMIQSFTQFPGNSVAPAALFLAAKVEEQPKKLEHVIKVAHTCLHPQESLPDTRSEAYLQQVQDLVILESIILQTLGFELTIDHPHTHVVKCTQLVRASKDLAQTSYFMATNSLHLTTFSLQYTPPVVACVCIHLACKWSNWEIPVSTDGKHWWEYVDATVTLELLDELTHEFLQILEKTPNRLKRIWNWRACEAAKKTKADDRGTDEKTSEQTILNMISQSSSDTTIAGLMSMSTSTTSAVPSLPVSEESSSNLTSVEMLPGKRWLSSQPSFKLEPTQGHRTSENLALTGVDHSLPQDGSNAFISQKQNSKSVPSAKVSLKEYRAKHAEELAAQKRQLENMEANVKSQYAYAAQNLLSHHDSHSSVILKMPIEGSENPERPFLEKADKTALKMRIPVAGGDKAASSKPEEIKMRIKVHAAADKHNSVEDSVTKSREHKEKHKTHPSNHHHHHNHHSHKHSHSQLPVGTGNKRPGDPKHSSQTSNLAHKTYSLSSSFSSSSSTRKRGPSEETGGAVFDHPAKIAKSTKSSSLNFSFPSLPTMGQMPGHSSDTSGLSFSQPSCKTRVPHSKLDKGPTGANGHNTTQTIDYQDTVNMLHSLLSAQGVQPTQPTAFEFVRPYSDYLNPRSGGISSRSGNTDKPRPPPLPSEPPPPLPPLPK
The format is biochemical. As to conditions: read-out: CDK9 CyclinT1 IC50.

In a further experiment the target is CDK4-CYCLIND1 (Homo sapiens, UniProt P11802). Particulars: a second value in parentheses for some compounds.
Sequence of CDK4-CYCLIND1 (P11802 whole entry): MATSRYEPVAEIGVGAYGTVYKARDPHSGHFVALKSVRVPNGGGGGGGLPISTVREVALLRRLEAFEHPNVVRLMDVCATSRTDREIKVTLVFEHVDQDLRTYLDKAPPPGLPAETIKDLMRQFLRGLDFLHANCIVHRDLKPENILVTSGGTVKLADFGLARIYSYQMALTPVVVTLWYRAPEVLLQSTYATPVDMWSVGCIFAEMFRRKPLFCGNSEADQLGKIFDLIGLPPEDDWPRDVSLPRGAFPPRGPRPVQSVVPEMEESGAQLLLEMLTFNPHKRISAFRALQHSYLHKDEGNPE
Sequence of CDK4-CYCLIND1 (P24385 whole entry partner): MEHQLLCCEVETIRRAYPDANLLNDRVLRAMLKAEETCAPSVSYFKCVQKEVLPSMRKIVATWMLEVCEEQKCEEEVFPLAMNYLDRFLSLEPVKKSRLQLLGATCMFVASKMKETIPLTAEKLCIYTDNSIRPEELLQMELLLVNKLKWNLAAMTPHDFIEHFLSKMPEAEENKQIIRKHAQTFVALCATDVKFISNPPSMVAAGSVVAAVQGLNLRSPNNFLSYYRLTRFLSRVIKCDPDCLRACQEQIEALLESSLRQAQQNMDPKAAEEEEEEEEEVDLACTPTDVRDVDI
For another experiment, the target named is T3, CDK6-CYCLIND3 (Homo sapiens, UniProt Q00534).
T3 construct: purchased Carna
T3 sequence (Q00534 whole entry): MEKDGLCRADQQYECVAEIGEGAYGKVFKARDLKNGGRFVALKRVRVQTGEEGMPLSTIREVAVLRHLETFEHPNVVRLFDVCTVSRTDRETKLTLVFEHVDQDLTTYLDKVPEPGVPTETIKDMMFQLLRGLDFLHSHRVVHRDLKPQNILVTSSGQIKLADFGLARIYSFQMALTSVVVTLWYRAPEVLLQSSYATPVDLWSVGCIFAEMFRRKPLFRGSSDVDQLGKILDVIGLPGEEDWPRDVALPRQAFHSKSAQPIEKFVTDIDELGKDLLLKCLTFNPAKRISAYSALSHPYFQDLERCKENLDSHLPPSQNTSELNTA
T3 sequence (P30281 whole entry partner): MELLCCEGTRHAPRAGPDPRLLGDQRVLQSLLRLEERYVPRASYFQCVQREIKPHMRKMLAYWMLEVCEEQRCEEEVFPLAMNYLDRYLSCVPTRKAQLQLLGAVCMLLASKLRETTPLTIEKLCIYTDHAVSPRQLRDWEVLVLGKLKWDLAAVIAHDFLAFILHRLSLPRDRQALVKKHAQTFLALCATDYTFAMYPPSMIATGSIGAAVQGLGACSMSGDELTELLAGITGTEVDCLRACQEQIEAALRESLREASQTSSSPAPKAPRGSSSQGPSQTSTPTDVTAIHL
The format is biochemical. As to conditions: Table 4b, lower part; read-out: CDK6 CyclinD3 IC50.

Where [1] appears, read: CDK4 CyclinD1 IC50, Table 4b, lower part.

Sequence of CDK1/B (P06493 whole entry, species assumed): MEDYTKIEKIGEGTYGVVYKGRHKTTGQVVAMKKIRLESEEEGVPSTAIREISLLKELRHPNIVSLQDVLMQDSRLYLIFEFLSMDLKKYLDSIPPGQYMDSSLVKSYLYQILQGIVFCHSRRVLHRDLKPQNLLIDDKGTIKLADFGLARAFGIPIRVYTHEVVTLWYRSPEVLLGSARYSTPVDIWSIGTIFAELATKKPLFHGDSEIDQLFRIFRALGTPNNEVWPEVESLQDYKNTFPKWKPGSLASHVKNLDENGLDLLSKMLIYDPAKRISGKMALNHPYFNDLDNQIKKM
Sequence of CDK1/B (P14635 whole entry partner, species assumed): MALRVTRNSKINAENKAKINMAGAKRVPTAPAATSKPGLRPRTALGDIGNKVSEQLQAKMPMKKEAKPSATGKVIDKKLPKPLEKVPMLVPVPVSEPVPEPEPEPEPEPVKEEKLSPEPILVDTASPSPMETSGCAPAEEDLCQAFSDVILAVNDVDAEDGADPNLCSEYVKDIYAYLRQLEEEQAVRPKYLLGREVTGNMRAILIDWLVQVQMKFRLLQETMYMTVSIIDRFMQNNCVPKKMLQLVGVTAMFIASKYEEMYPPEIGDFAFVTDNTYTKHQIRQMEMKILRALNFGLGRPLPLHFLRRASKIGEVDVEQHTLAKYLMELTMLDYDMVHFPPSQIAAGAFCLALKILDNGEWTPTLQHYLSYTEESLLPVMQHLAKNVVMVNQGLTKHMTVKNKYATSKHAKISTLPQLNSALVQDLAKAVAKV
Procedure for CDK4-CYCLIND1: Inhibition assays were performed using microfluidic LabChip 300 Drug Discovery System from Caliper Life Sciences. […] The assay has a total volume of 10 μL consisting of 5 μL of enzyme and buffer and 5 μL of substrate and buffer. The test compounds were diluted in 100% dimethylsulfoxide (DMSO) using 3-fold dilution steps. […] Compounds were tested in a single well for each dilution and the final concentration of DMSO was maintained at 1%.
The assay buffer contained 100 mM HEPES, pH 7.5, 0.01% Triton X-100, 0.1% bovine serum albumin (BSA), 5 mM MgCl2; 1 mM dithiothreitol (DTT), 10 μM sodium orthovanadate, and 10 μM β-glycerophosphate.
The assay was conducted by adding 5 μL of enzyme, adenosine triphosphate (ATP) and buffer to an assay plate. A 100 nL aliquot of the diluted compounds were added to the plate. The assay was initiated by the addition of 5 μL of phosphoenolpyruvate substrate (PEP) in buffer. […] The reaction was terminated by the addition of EDTA. The plates were analyzed using a Caliper LabChip 3000.
Additional inhibition assays were performed as described above.
The assays were conducted as described above for the racemates.

In the case of `CN1CCN(c2ccc(Nc3ncc4c(n3)N(C3CCCC3)C(=O)N([C@H]3CCNC3)C4)cc2)CC1` [Example D71, (S)-1-cyclopentyl-7-((4-(4-methylpiperazin-1-yl)phenyl)amino)-3-(pyrrolidin-3-yl)-3,4-dihydropyrimido[4,5-d]pyrimidin-2(1H)-one], the IC50 is above 10000 nM on CDK1/B (Table 4a); above 10000 nM at CDK2-CYCLINA (Table 4a); above 10000 nM against CDK7 CyclinH (Table 4a); above 10000 nM at CDK9-CYCLINT1 (Table 4a); 1960 nM on CDK4-CYCLIND1 (CDK4 CyclinD1 IC50, Table 4a).
Turning to `CN1CCN(c2ccc(Nc3ncc4c(n3)N(C3CCCC3)C(=O)N([C@@H]3CCNC3)C4)cc2)CC1` [Example D74, (R)-1-cyclopentyl-7-((4-(4-methylpiperazin-1-yl)phenyl)amino)-3-(pyrrolidin-3-yl)-3,4-dihydropyrimido[4,5-d]pyrimidin-2(1H)-one], the concentration for half-maximal inhibition (IC50) on CDK1/B (Table 4a) is above 10000 nM; on CDK2-CYCLINA (Table 4a) it was above 10000 nM; at CDK7 CyclinH (Table 4a) it was above 10000 nM; on CDK9-CYCLINT1 (Table 4a), above 10000 nM; on CDK4-CYCLIND1 (CDK4 CyclinD1 IC50, Table 4a) it was 2740 nM.
On to `CN1CCN(c2ccc(Nc3ncc4c(n3)N(C3CCCC3)C(=O)N(c3ccccc3F)C4)cc2F)CC1` [Example D80, 1-cyclopentyl-7-((3-fluoro-4-(4-methylpiperazin-1-yl)phenyl)amino)-3-(2-fluorophenyl)-3,4-dihydropyrimido[4,5-d]pyrimidin-2(1H)-one], for which the IC50 at CDK1/B (Table 4a) was above 10000 nM; on CDK2-CYCLINA (Table 4a), 7590 nM; against CDK7 CyclinH (Table 4a) it was above 10000 nM; on CDK9-CYCLINT1 (Table 4a), above 10000 nM; on CDK4-CYCLIND1 (CDK4 CyclinD1 IC50, Table 4a), 3.43 nM.
With `O=C1NCC[C@@]12Cc1cnc(N[C@H]3CC[C@H](NC4CCOCC4)CC3)nc1N(C1CCCC1)C2=O` [Example D92, (S)-8-cyclopentyl-2-(((1r,4S)-4-((tetrahydro-2H-pyran-4-yl)amino)cyclohexyl)amino)-5,8-dihydro-7H-spiro[pyrido[2,3-d]pyrimidine-6,3′-pyrrolidine]-2′,7-dione], the IC50 was 219 nM on CDK1/B (Table 4a); 153 nM at CDK2-CYCLINA (Table 4a); 343 nM at CDK7 CyclinH (Table 4a); below 3.2 nM at CDK9-CYCLINT1 (Table 4a); 5.56 nM on CDK4-CYCLIND1 (CDK4 CyclinD1 IC50, Table 4a).
With `O=C1NCC[C@@]12Cc1cnc(N[C@H]3CC[C@H](NC4CCOCC4)CC3)nc1N(C13CC(C1)C3)C2=O` [Example D93, (S)-8-(bicyclo[1.1.1]pentan-1-yl)-2-(((1r,4S)-4-((tetrahydro-2H-pyran-4-yl)amino)cyclohexyl)amino)-5,8-dihydro-7H-spiro[pyrido[2,3-d]pyrimidine-6,3′-pyrrolidine]-2′,7-dione], the IC50 on CDK1/B (Table 4a) worked out at 1100 nM; on CDK2-CYCLINA (Table 4a), 723 nM; on CDK7 CyclinH (Table 4a) it was 1500 nM; on CDK9-CYCLINT1 (Table 4a), 16.1 nM; at CDK4-CYCLIND1 (CDK4 CyclinD1 IC50, Table 4a), 33.3 nM.
Consider `O=C1NCC[C@@]12Cc1cnc(Nc3ccc(N4CCN(CCO)CC4)c(F)c3)nc1N(C1CCCC1)C2=O` [Example D97, (S)-8-cyclopentyl-2-((3-fluoro-4-(4-(2-hydroxyethyl)piperazin-1-yl)phenyl)amino)-5,8-dihydro-7H-spiro[pyrido[2,3-d]pyrimidine-6,3′-pyrrolidine]-2′,7-dione], for which the IC50 against CDK1/B (Table 4b, lower part) was 222 nM; on CDK2-CYCLINA (Table 4b, lower part), 56.6 nM; on CDK7 CyclinH (Table 4b, lower part) it was 111 nM; at CDK9-CYCLINT1 (Table 4b, lower part), below 3.2 nM; at CDK4-CYCLIND1 (setting [1]), below 3.2 nM.
For `CC(C)c1ccc(Nc2ncc3c(n2)N(C2CCCC2)C(=O)[C@]2(CCNC2=O)C3)cc1` [Example D115, (S)-8-cyclopentyl-2-((4-isopropylphenyl)amino)-5,8-dihydro-7H-spiro[pyrido[2,3-d]pyrimidine-6,3′-pyrrolidine]-2′,7-dione], the IC50 against CDK1/B (Table 4b, lower part) is 563 nM; on CDK2-CYCLINA (Table 4b, lower part) it was 135 nM; against CDK7 CyclinH (Table 4b, lower part), above 10000 nM; on CDK9-CYCLINT1 (Table 4b, lower part), 9.03 nM.
With `CC(C)N1CCC(Nc2ncc3c(n2)N(C2CCCC2)C(=O)[C@]2(CCNC2=O)C3)CC1` [Example D125, (S)-8-cyclopentyl-2-((1-isopropylpiperidin-4-yl)amino)-5,8-dihydro-7H-spiro[pyrido[2,3-d]pyrimidine-6,3′-pyrrolidine]-2′,7-dione], the IC50 on CDK1/B (Table 4b, lower part) turned out to be 1160 nM; on CDK2-CYCLINA (Table 4b, lower part), 1140 nM; against CDK7 CyclinH (Table 4b, lower part), 557 nM; on CDK9-CYCLINT1 (Table 4b, lower part), 20.5 nM.
`CC(C)c1ccc(Nc2ncc3c(n2)N(C2CCCC2)C(=O)[C@]2(CCNC2=O)C3)cc1F` [Example D130, (S)-8-cyclopentyl-2-((3-fluoro-4-isopropylphenyl)amino)-5,8-dihydro-7H-spiro[pyrido[2,3-d]pyrimidine-6,3′-pyrrolidine]-2′,7-dione]: the IC50 was 1060 nM against CDK1/B (Table 4b, lower part); 242 nM at CDK2-CYCLINA (Table 4b, lower part); above 10000 nM against CDK7 CyclinH (Table 4b, lower part); 12.3 nM at CDK9-CYCLINT1 (Table 4b, lower part).
Consider `CN1CCN(c2ccc(Nc3ncc4c(n3)N(C35CC(C3)C5)C(=O)C3(CCNC3=O)C4)cc2F)CC1` (stereo not shown) [Example D183, 8-(bicyclo[1.1.1]pentan-1-yl)-2-((3-fluoro-4-(4-methylpiperazin-1-yl)phenyl)amino)-5,8-dihydro-7H-spiro[pyrido[2,3-d]pyrimidine-6,3′-pyrrolidine]-2′,7-dione], for which the concentration for half-maximal inhibition (IC50) was 2430 nM at CDK2-CYCLINA (Table 4b, lower part); 66.2 nM on CDK6-CYCLIND3; 2340 nM on CDK7 CyclinH (Table 4b, lower part); 76.8 nM on CDK9-CYCLINT1 (Table 4b, lower part); 22.9 nM at CDK4-CYCLIND1 (setting [1]).
For the molecule `O=C1NCC[C@@]12Cc1cnc(Nc3ccc(N4CCNCC4)c(F)c3)nc1N(C13CC(C1)C3)C2=O` [Example D184, (S)-8-(bicyclo[1.1.1]pentan-1-yl)-2-((3-fluoro-4-(piperazin-1-yl)phenyl)amino)-5,8-dihydro-7H-spiro[pyrido[2,3-d]pyrimidine-6,3′-pyrrolidine]-2′,7-dione], the IC50 is 1400 nM on CDK2-CYCLINA (Table 4b, lower part); 43.5 nM at CDK6-CYCLIND3; 1690 nM at CDK7 CyclinH (Table 4b, lower part); 46.8 nM at CDK9-CYCLINT1 (Table 4b, lower part); 19.6 nM and 11.1 nM on CDK4-CYCLIND1 (setting [1]).
In the case of `CN1CCN(c2ccc(Nc3ncc4c(n3)N(C35CC(C3)C5)C(=O)[C@]3(CCNC3=O)C4)cc2F)CC1` [Example D185, (S)-8-(bicyclo[1.1.1]pentan-1-yl)-2-((3-fluoro-4-(4-methylpiperazin-1-yl)phenyl)amino)-5,8-dihydro-7H-spiro[pyrido[2,3-d]pyrimidine-6,3′-pyrrolidine]-2′,7-dione], the IC50 at CDK2-CYCLINA (Table 4b, lower part) stood at 1060 nM; at CDK6-CYCLIND3, 31.2 nM; on CDK7 CyclinH (Table 4b, lower part) it was 1170 nM; at CDK9-CYCLINT1 (Table 4b, lower part), 36.7 nM; on CDK4-CYCLIND1 (setting [1]), 15.6 nM.
For the molecule `CN1CCN(c2ccc(Nc3ncc4c(n3)N(C35CC(C3)C5)C(=O)[C@]3(CCNC3=O)C4)cc2)CC1` [Example D186, (S)-8-(bicyclo[1.1.1]pentan-1-yl)-2-((4-(4-methylpiperazin-1-yl)phenyl)amino)-5,8-dihydro-7H-spiro[pyrido[2,3-d]pyrimidine-6,3′-pyrrolidine]-2′,7-dione], the IC50 was 1490 nM on CDK2-CYCLINA (Table 4b, lower part); 38.7 nM at CDK6-CYCLIND3; 2320 nM against CDK7 CyclinH (Table 4b, lower part); 61.5 nM at CDK9-CYCLINT1 (Table 4b, lower part); 13.9 nM at CDK4-CYCLIND1 (setting [1]).
Regarding `CC(C)N1CCN(c2ccc(Nc3ncc4c(n3)N(C35CC(C3)C5)C(=O)[C@]3(CCNC3=O)C4)cc2)CC1` [Example D187, (S)-8-(bicyclo[1.1.1]pentan-1-yl)-2-((4-(4-isopropylpiperazin-1-yl)phenyl)amino)-5,8-dihydro-7H-spiro[pyrido[2,3-d]pyrimidine-6,3′-pyrrolidine]-2′,7-dione], the IC50 at CDK2-CYCLINA (Table 4b, lower part) was found to be 1370 nM; on CDK6-CYCLIND3, 33.6 nM; against CDK7 CyclinH (Table 4b, lower part), 1680 nM; on CDK9-CYCLINT1 (Table 4b, lower part), 60.7 nM; at CDK4-CYCLIND1 (setting [1]) it was 14.5 nM.
For the molecule `CN1CCN(c2ccc(Nc3ncc4c(n3)N(C35CC(C3)C5)C(=O)[C@]3(CCNC3=O)C4)nc2)CC1` [Example D188, (S)-8-(bicyclo[1.1.1]pentan-1-yl)-2-((5-(4-methylpiperazin-1-yl)pyridin-2-yl)amino)-5,8-dihydro-7H-spiro[pyrido[2,3-d]pyrimidine-6,3′-pyrrolidine]-2′,7-dione], the concentration for half-maximal inhibition (IC50) is above 100000 nM at CDK2-CYCLINA (Table 4b, lower part); 21700 nM on CDK6-CYCLIND3; above 100000 nM at CDK7 CyclinH (Table 4b, lower part); above 100000 nM at CDK9-CYCLINT1 (Table 4b, lower part); 10600 nM on CDK4-CYCLIND1 (setting [1]).
On to `CC(C)N1CCN(c2ccc(Nc3ncc4c(n3)N(C35CC(C3)C5)C(=O)[C@]3(CCNC3=O)C4)nc2)CC1` [Example D189, (S)-8-(bicyclo[1.1.1]pentan-1-yl)-2-((5-(4-isopropylpiperazin-1-yl)pyridin-2-yl)amino)-5,8-dihydro-7H-spiro[pyrido[2,3-d]pyrimidine-6,3′-pyrrolidine]-2′,7-dione], for which the IC50 on CDK2-CYCLINA (Table 4b, lower part) is above 100000 nM; on CDK6-CYCLIND3, 41600 nM; on CDK7 CyclinH (Table 4b, lower part) it was above 100000 nM; at CDK9-CYCLINT1 (Table 4b, lower part), 17700 nM; on CDK4-CYCLIND1 (setting [1]), 28700 nM.
With `CCN1CCN(Cc2ccc(Nc3ncc4c(n3)N(C35CC(C3)C5)C(=O)[C@]3(CCNC3=O)C4)nc2)CC1` [Example D190, (S)-8-(bicyclo[1.1.1]pentan-1-yl)-2-((5-((4-ethylpiperazin-1-yl)methyl)pyridin-2-yl)amino)-5,8-dihydro-7H-spiro[pyrido[2,3-d]pyrimidine-6,3′-pyrrolidine]-2′,7-dione], the IC50 on CDK2-CYCLINA (Table 4b, lower part) was above 100000 nM; on CDK6-CYCLIND3, 34200 nM; at CDK7 CyclinH (Table 4b, lower part), above 100000 nM; at CDK9-CYCLINT1 (Table 4b, lower part), 21800 nM; on CDK4-CYCLIND1 (setting [1]) it was 11400 nM.

For orientation: IC50 means the concentration needed to halve the response being measured.
